Data: patent publication US10407467B2, “Polymyxin derivatives and their use in combination therapy together with different antibiotics” (priority 2013, dated 2019)
Counter-ions that a name gives are not always drawn. Bridge positions count the residues as written; N and C are the ends. Square brackets hold non-standard residues; d marks the D form. Peptide text beside a SMILES is read from it. * marks the point of attachment. ξ: configuration not given here. X12 = CC(C)C[C@H](N)[C@H](O)C(=O)*; Thr(3ξ) = CC(O)[C@H](N)C(=O)O; Dab = NCC[C@H](N)C(=O)O

Key:
[1] = test system: Acinetobacter baumannii; test: MIC, compound in combination with a second agent (broth microdilution); format: cell-based; settings: 1:1 (wt:wt) combination with Rifampicin, MIC = total drug concentration
Outline: (§1)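 Read-out is the total-drug MIC of a 1:1 weight ratio combination with another agent, e.g. rifampicin. Duplicates within 2-fold gave the lower value; wider spread meant a non-valid assay. Where compounds were tested multiple times, the mode is given.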

[2] = test system: Escherichia coli; test: as above; format: cell-based; settings: 1:1 (wt:wt) combination with Rifampicin, MIC = total drug concentration
Outline: as §1

[3] = test system: Klebsiella pneumoniae; test: as above; format: cell-based; settings: 1:1 (wt:wt) combination with Rifampicin; MIC = total drug concentration; strain CCUG-59348
Outline: as §1

[4] = test system: Pseudomonas aeruginosa; test: as above; format: cell-based; settings: 1:1 (wt:wt) combination with Rifampicin, MIC = total drug concentration
Outline: as §1

[5] = test system: P. aeruginosa ATCC27853; format: in vivo, Pseudomonas aeruginosa; settings: ATCC27853, in vivo, iv, 5 mg/kg, 6 h
Protocol: Compounds were administered in solution by intravenous (IV) bolus injection into the lateral tail vein. […] At 1 hour post infection, 4 animals were humanely euthanized using pentabarbitone overdose to provide a pre-treatment control group. At 9 hours post infection, the clinical condition of all animals was assessed prior to them being humanely euthanized by pentabarbitone overdose. Animal weight was determined before both thighs were removed and weighed individually. Individual thigh tissue samples were homogenized in ice cold sterile phosphate buffered saline. Thigh homogenates were then quantitatively cultured onto CLED agar and incubated at 37° C. for 24 hours before colonies were counted.

MIC A. baumannii ATCC BAA-747 ([1]; strain ATCC BAA-747): ≤0.06 micrograms/mL
MIC A. baumannii CCUG57249 ([1]; strain CCUG57249): ≤0.06 micrograms/mL
MIC A. baumannii NCTC 13423 ([1]; strain NCTC 13423): ≤0.06 micrograms/mL
MIC A. baumannii NCTC 13424 ([1]; strain NCTC 13424): ≤0.06 micrograms/mL
MIC E. coli ATCC25922 ([2]; strain ATCC25922): ≤0.06 micrograms/mL
MIC E. coli NCTC9001 ([2]; strain NCTC9001): 0.125 micrograms/mL
MIC K. pneumoniae CCUG-59348 [3]: 2 micrograms/mL
MIC P. aeruginosa ATCC 27853 ([4]; strain ATCC 27853): 0.125 micrograms/mL
MIC P. aeruginosa ATCC CRM-9027 ([4]; strain ATCC CRM-9027): 0.25 micrograms/mL
MIC P. aeruginosa ATCC-47 ([4]; strain ATCC-47): ≤0.06 micrograms/mL
MIC P. aeruginosa CCUG 59626 ([4]; strain CCUG 59626): 0.125 micrograms/mL
Compound: CC(C)C[C@@H]1NC(=O)[C@@H](Cc2ccccc2)NC(=O)[C@H](CCN)NC(=O)[C@@H](NC(=O)[C@H](CCN)NC(=O)[C@@H](NC(=O)[C@@H](O)[C@@H](N)CC(C)C)C(C)O)CCNC(=O)[C@H](C(C)O)NC(=O)[C@H](CCN)NC(=O)[C@H](CCN)NC1=O (stereo partly drawn) [Example 41, (2S,3S)-3-Amino-2-hydroxy-5-methylhexanoyl polymyxin B nonapeptide, trifluoroacetate salt] (X12-[Thr(3ξ)][Dab][Dab][Dab][dF]L[Dab][Dab][Thr(3ξ)]; lactam 3-C)
log reduction in bacterial counts compared to non-treated control [5]: 2.73 log
